ChEMBL document CHEMBL1201862, “PubChem BioAssay data set” (2004)
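In this assay, cells in 96-well plates receive the compound at five concentrations for 48 hours. Endpoints are linearly interpolated between the surrounding concentrations. At the GI50, growth is halved.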 Calls of active or inactive are those of the source. No stated cut-off is given here; in the data, active = GI50 up to about 1.1 µM and inactive = higher.

Key:
Experiment in all cases: NCI anticancer screen, dose series, 48 h
[1] = tested on: CCRF-CEM
[2] = tested on: LXFL 529
[3] = tested on: SF-539
[4] = tested on: LOX IMVI
[5] = tested on: KM12
[6] = tested on: RPMI-8226
[7] = tested on: COLO 205
[8] = tested on: SK-MEL-5
[9] = tested on: IGROV-1
[10] = tested on: SK-OV-3
[11] = tested on: SF-295
[12] = tested on: A498
[13] = tested on: OVCAR-4
[14] = tested on: HOP-92
[15] = tested on: SN12C
[16] = tested on: Hs-578T
[17] = tested on: T47D
[18] = tested on: DU-145
[19] = tested on: BT-549
[20] = tested on: MCF7

Structure (SMILES)	GI50 [1]	GI50 [2]	GI50 [3]	GI50 [4]	GI50 [5]	GI50 [6]	GI50 [7]	GI50 [8]	GI50 [9]	GI50 [10]	GI50 [11]	GI50 [12]	GI50 [13]	GI50 [14]	GI50 [15]	GI50 [16]	GI50 [17]	GI50 [18]	GI50 [19]	GI50 [20]
O=C(/C=C\c1ccc(Cl)c(Cl)c1)c1ccc(Cl)cc1Cl	4.1 µM (inactive)	2.26 µM (inactive)	20 µM (inactive)	5.74 µM (inactive)	8.38 µM (inactive)	3.18 µM (inactive)	> 10 µM (inactive)	14.9 µM (inactive)	18 µM (inactive)	19.9 µM (inactive)	18.6 µM (inactive)	> 10 µM (inactive)	24.4 µM (inactive)	> 10 µM (inactive)	24.9 µM (inactive)					
COC(=O)C12OCC34C(CC5C(C)=CC(=O)C(O)C5(C)C3C(O)C1O)OC(=O)C(OC(=O)CC(C)C)C24 (stereo not given)	0.000486 µM (active)	< 0.0255 µM (active)	0.00064 µM (active)	0.000548 µM (active)	0.00166 µM (active)	0.000371 µM (active)	0.00237 µM (active)	0.000624 µM (active)	0.000564 µM (active)	0.0031 µM (active)	0.00158 µM (active)	0.002 µM (active)		0.00324 µM (active)	0.00366 µM (active)	0.000164 µM (active)	0.00146 µM (active)	0.00083 µM (active)	0.000463 µM (active)	
Cc1c(Cl)cccc1NC(=O)c1cccc([N+](=O)[O-])c1O	4.2 µM (inactive)	11.3 µM (inactive)	15.7 µM (inactive)	5.78 µM (inactive)	21.4 µM (inactive)	3.24 µM (inactive)	14.1 µM (inactive)	3.26 µM (inactive)	5.83 µM (inactive)	25.6 µM (inactive)	16.4 µM (inactive)	14.2 µM (inactive)	9.79 µM (inactive)	2.37 µM (inactive)	14 µM (inactive)					
CC12CC(Sc3ccccc3N1)c1ccccc1O2 (stereo not given)	12.1 µM (inactive)	15.2 µM (inactive)	17.5 µM (inactive)	13.7 µM (inactive)	15.3 µM (inactive)	13.6 µM (inactive)	16.2 µM (inactive)	14.8 µM (inactive)	21.9 µM (inactive)	33.7 µM (inactive)	16 µM (inactive)	18.5 µM (inactive)	17 µM (inactive)	18.7 µM (inactive)	18.8 µM (inactive)					
Cc1cn(C2CC(O)C(CO)O2)c(=O)n2nnnc12 (stereo not given)	> 100 µM (inactive)	> 100 µM (inactive)	> 100 µM (inactive)	> 100 µM (inactive)	> 100 µM (inactive)	> 100 µM (inactive)	> 100 µM (inactive)	> 100 µM (inactive)	> 100 µM (inactive)	> 100 µM (inactive)	> 100 µM (inactive)	> 100 µM (inactive)	> 100 µM (inactive)	> 100 µM (inactive)						
CN1CCN2c3ccccc3CC(C#N)(C#N)C2C1 (stereo not given)	> 100 µM (inactive)	> 100 µM (inactive)	> 100 µM (inactive)	> 100 µM (inactive)	> 100 µM (inactive)	> 100 µM (inactive)	> 100 µM (inactive)	> 100 µM (inactive)	> 100 µM (inactive)	> 100 µM (inactive)	> 100 µM (inactive)	> 100 µM (inactive)	> 100 µM (inactive)	> 100 µM (inactive)	> 100 µM (inactive)					
C=C1CC2OC2(C(=O)O[C@H]2CCC3[C@@H]4CCC5=CC(=O)CC[C@]5(C)C4CC[C@@]32C)C1=O (stereo not given in full)	0.804 µM (active)	2.18 µM (inactive)	9.33 µM (inactive)	7.94 µM (inactive)	12.6 µM (inactive)	1.47 µM (inactive)	4.1 µM (inactive)	11.8 µM (inactive)	10.9 µM (inactive)	20 µM (inactive)	19.1 µM (inactive)	13.6 µM (inactive)	6.34 µM (inactive)	9.75 µM (inactive)	6.52 µM (inactive)	16.8 µM (inactive)	3.3 µM (inactive)	17.8 µM (inactive)	15.3 µM (inactive)	
O=C1C=CC(=O)c2c1c1c(c3c2C2c4ccccc4C3c3ccccc32)C2c3ccccc3C1c1ccccc12	0.368 µM (active)	1.08 µM (active)	5.15 µM (inactive)	1.64 µM (inactive)	12.7 µM (inactive)	1.79 µM (inactive)	1.5 µM (inactive)	3.3 µM (inactive)	7.06 µM (inactive)	15 µM (inactive)	14.9 µM (inactive)	2.9 µM (inactive)	2.04 µM (inactive)	1.08 µM (active)	3.67 µM (inactive)	4.29 µM (inactive)	1.41 µM (inactive)	15.1 µM (inactive)	3.26 µM (inactive)	1.27 µM (inactive)
CN(C)CCC(=O)N1CCc2c([nH]c3ccccc23)C1c1cccnc1 (stereo not given)	> 100 µM (inactive)	34.9 µM (inactive)	> 100 µM (inactive)	> 100 µM (inactive)	> 100 µM (inactive)	> 100 µM (inactive)		> 100 µM (inactive)	> 100 µM (inactive)	> 100 µM (inactive)	> 100 µM (inactive)	> 100 µM (inactive)	> 100 µM (inactive)	36.3 µM (inactive)	> 100 µM (inactive)					
COC(=O)c1ccc(NCc2cc(O)ccc2O)cc1	1.51 µM (inactive)	5.06 µM (inactive)	5.46 µM (inactive)	10.2 µM (inactive)	12.4 µM (inactive)	1.69 µM (inactive)	12.6 µM (inactive)	9.71 µM (inactive)	9.89 µM (inactive)	14 µM (inactive)	18.2 µM (inactive)	16.8 µM (inactive)	11.5 µM (inactive)	13.3 µM (inactive)	16.5 µM (inactive)	3.93 µM (inactive)	1.65 µM (inactive)	12.4 µM (inactive)	1.04 µM (active)	6.21 µM (inactive)
O=C(O)[C@@H](NS(=O)(=O)c1ccc([N+](=O)[O-])cc1)c1ccccc1	> 100 µM (inactive)	> 100 µM (inactive)	> 100 µM (inactive)	> 100 µM (inactive)	> 100 µM (inactive)	> 100 µM (inactive)	> 100 µM (inactive)	> 100 µM (inactive)	> 100 µM (inactive)	> 100 µM (inactive)	> 100 µM (inactive)	> 100 µM (inactive)	> 100 µM (inactive)	> 100 µM (inactive)	> 100 µM (inactive)					
